Experimental data from ChEMBL document CHEMBL4184274 (Bioorg Med Chem Lett, 2018).

Assay: in vivo
Conditions: rat, 5 mg/kg

SMILES: CCN1CCN(Cc2ccc(Nc3ncc(F)c(-c4cc(F)c5nc(C)n(C(C)C)c5c4)n3)nc2)CC1 [ABEMACICLIB]
- AUC: 3280 ng·h/mL
